Reference: ChEMBL document CHEMBL4118205, “Design, synthesis and biological evaluation of artemisinin derivatives containing fluorine atoms as anticancer agents” (Bioorg Med Chem Lett, 2018)

How the values were obtained:
U-87 MG [1] = experiment: Cytotoxicity against human U87 cells assessed as reduction in cell viability after 72 hrs by MTT assay; type: functional, cell-based, U-87MG ATCC
SH-SY5Y [2] = experiment: Cytotoxicity against human SH-SY5Y cells assessed as reduction in cell viability after 72 hrs by MTT assay; type: functional, cell-based
MCF7 [3] = experiment: Cytotoxicity against human MCF7 cells assessed as reduction in cell viability after 72 hrs by MTT assay; type: functional, cell-based; settings: MCF7, 72 h
MDA-MB-231 [4] = experiment: Cytotoxicity against human MDA-MB-231 cells assessed as reduction in cell viability after 72 hrs by MTT assay; type: functional, cell-based; settings: MDA-MB-231, 72 h
A549 [5] = experiment: Cytotoxicity against human A549 cells assessed as reduction in cell viability after 72 hrs by MTT assay; type: functional, cell-based; settings: A549, 72 h
A-375 = experiment: Cytotoxicity against human A375 cells assessed as reduction in cell viability after 72 hrs by MTT assay; type: functional, cell-based; settings: A-375, 72 h
L02 [6] = experiment: Cytotoxicity against human L02 cells assessed as reduction in cell viability after 72 hrs by MTT assay; type: functional, cell-based; settings: L02, 72 h
U-87 MG [7] = experiment: Cytotoxicity against human U87 cells assessed as reduction in cell viability after 24 to 72 hrs by MTT assay; type: functional, cell-based, U-87MG ATCC
SH-SY5Y [8] = experiment: Cytotoxicity against human SH-SY5Y cells assessed as reduction in cell viability after 24 to 72 hrs by MTT assay; type: functional, cell-based
MCF7 [9] = experiment: Cytotoxicity against human MCF7 cells assessed as reduction in cell viability after 24 to 72 hrs by MTT assay; type: functional, cell-based
MDA-MB-231 [10] = experiment: Cytotoxicity against human MDA-MB-231 cells assessed as reduction in cell viability after 24 to 72 hrs by MTT assay; type: functional, cell-based
A549 [11] = experiment: Cytotoxicity against human A549 cells assessed as reduction in cell viability after 24 to 72 hrs by MTT assay; type: functional, cell-based
L02 [12] = experiment: Cytotoxicity against human L02 cells assessed as reduction in cell viability after 24 to 72 hrs by MTT assay; type: functional, cell-based

Structure (SMILES)	IC50 (U-87 MG [1])	IC50 (SH-SY5Y [2])	IC50 (MCF7 [3])	IC50 (MDA-MB-231 [4])	IC50 (A549 [5])	IC50 (A-375)	IC50 (L02 [6])	IC50 (U-87 MG [7])	IC50 (SH-SY5Y [8])	IC50 (MCF7 [9])	IC50 (MDA-MB-231 [10])	IC50 (A549 [11])	IC50 (L02 [12])
C[C@H]1[C@H](N2CCN(Cc3ccc(F)cc3)CC2)O[C@@H]2O[C@@]3(C)CC[C@H]4[C@H](C)CC[C@@H]1[C@@]24OO3	> 50 µM	15 µM	3.5 µM	12 µM	35.9 µM	12.8 µM	17.1 µM						
C[C@H]1[C@H](N2CCN(Cc3cccc(F)c3)CC2)O[C@@H]2O[C@@]3(C)CC[C@H]4[C@H](C)CC[C@@H]1[C@@]24OO3	> 50 µM	> 50 µM	6.8 µM	32.9 µM	44.4 µM	46.5 µM	23.2 µM						
C[C@H]1[C@H](N2CCN(c3ccc(C(F)(F)F)cc3)CC2)O[C@@H]2O[C@@]3(C)CC[C@H]4[C@H](C)CC[C@@H]1[C@@]24OO3	> 50 µM	> 50 µM	27 µM	> 50 µM	> 50 µM	40.9 µM	20.5 µM						
C[C@H]1[C@@H](O)O[C@@H]2O[C@@]3(C)CC[C@H]4[C@H](C)CC[C@@H]1[C@@]24OO3 [ARTENIMOL]	> 50 µM	> 50 µM	> 50 µM	45.7 µM	46.8 µM	38.5 µM	34 µM						
COc1cccc2c1C(=O)c1c(O)c3c(c(O)c1C2=O)C[C@@](O)(C(=O)CO)C[C@@H]3O[C@H]1C[C@H](N)[C@H](O)[C@H](C)O1 [DOXORUBICIN]				2.8 µM	2.3 µM	0.4 µM	0.9 µM						
C[C@H]1[C@H](N2CCN(c3cccc(C(F)(F)F)c3)CC2)O[C@@H]2O[C@@]3(C)CC[C@H]4[C@H](C)CC[C@@H]1[C@@]24OO3	> 50 µM	11.2 µM	7.5 µM	12.5 µM	12.9 µM	20 µM	9.1 µM						
C[C@H]1[C@H](Nc2ccc(SC(F)(F)F)cc2)O[C@@H]2O[C@@]3(C)CC[C@H]4[C@H](C)CC[C@@H]1[C@@]24OO3	28 µM	20.3 µM	5.3 µM	22.9 µM	41.8 µM	26.5 µM	9.3 µM						
C[C@H]1[C@H](N2CCN(C(=O)Nc3ccc(C(F)(F)F)cc3)CC2)O[C@@H]2O[C@@]3(C)CC[C@H]4[C@H](C)CC[C@@H]1[C@@]24OO3	15.2 µM	3.2 µM	2.7 µM	5.8 µM	21.1 µM	15 µM	4 µM						
C[C@H]1[C@H](NCc2ccc(OC(F)(F)F)cc2)O[C@@H]2O[C@@]3(C)CC[C@H]4[C@H](C)CC[C@@H]1[C@@]24OO3	17.7 µM	5 µM	10.2 µM	21.8 µM	17.9 µM	10.9 µM	35.7 µM						
C[C@@H]1CC[C@H]2[C@@H](C)C(=O)O[C@@H]3O[C@@]4(C)CC[C@@H]1[C@]32OO4 [ARTEMISININ]	> 50 µM	> 50 µM	> 50 µM	> 50 µM	> 50 µM	> 50 µM	> 50 µM						
C[C@H]1[C@H](N2CCN(C(=O)Nc3ccc(F)cc3)CC2)O[C@@H]2O[C@@]3(C)CC[C@H]4[C@H](C)CC[C@@H]1[C@@]24OO3	28.7 µM	5 µM	5.5 µM	10.9 µM	17.6 µM	9.1 µM	15.6 µM						
CCOC(=O)N1CCN([C@@H]2O[C@@H]3O[C@@]4(C)CC[C@H]5[C@H](C)CC[C@@H]([C@H]2C)[C@@]35OO4)CC1								> 50 µM	> 50 µM	15.2 µM	19.2 µM	19.9 µM	> 50 µM
Cn1nnc2c(C(N)=O)ncn2c1=O [TEMOZOLOMIDE]	> 50 µM	> 50 µM											
C[C@H]1[C@H](N2CCN(c3ccc(F)cc3)CC2)O[C@@H]2O[C@@]3(C)CC[C@H]4[C@H](C)CC[C@@H]1[C@@]24OO3	25.5 µM	> 50 µM	28.8 µM	> 50 µM	> 50 µM	> 50 µM	11.2 µM						
